Marks after values point to notes of the source that are not given here. Ends that are not written are not given here.
Tests used:
[1] = test system: T lymphocyte; assay: T lymphocyte transformation test (ConA-stimulated spleen cells of treated mice, MTT); assay type: in vivo, BALB/c mice; conditions: for X ± SD (stimulation index): healthy mice, saline 1.3 ± 0.1; for effect on T lymphocyte transformation (summary): statistically significant difference from saline in any of the dosage groups 0.5-500 μg/kg/day
Experimental: (§1) The above substances were all dissolved in 0.5 ml saline and injected intraperitoneal (i.p.) for 15 continuous days, once per day.
(§2) Ten mice per group. The day after the last test substance administration, the mice were sacrificed by cervical dislocation. The spleen was isolated aseptically and manually dispersed in cold D-Hank's solution using an injection needle. The dispersed cell suspension was further sieved through a 100 gauge 150 μm diameter stainless steel sieve. After centrifugation at 200 g for 10 minutes, the supernatant was discarded. The cell pellet was re-suspended in 10 volume of Tris-NH4Cl buffer and then kept standing still for 10 minutes at room temperature. The suspended cells were collected by centrifugation at 150 g for 10 minutes. The cells were washed 2-4 times with cold D-Hank's solution by re-suspending and collecting by centrifugation with condition as described above. The washed cells were then diluted to the desired cell densities by RPMI-1640 culture medium, containing 10% fetal bovine serum.
(§3) Spleen cells of density 1×10^6/ml were placed onto a 96 wells cell culture plate, 100 μL/well, three parallel wells each of the assay sample and control sample per mouse. To the assay wells, 100 μl/well ConA of 100 μg/ml in RPMI-1640 was added, and […] plain RPMI-1640 was used for the controls. The cells were incubated for 66 hrs at 37° C., 5% CO2. The cells were then pelleted by centrifugation at 150 g for 10 minutes.
50 μl/well MTT of 1 mg/ml in RPMI-1640 was added to the cell pellet and the cells re-suspended by shaking for 2 minutes. The incubation was continued for 4 hours. The supernatant was discarded after centrifugation at 150 g for 10 minutes. 120 μl 40 mM HCl-2-propanol was added to the cell pellet and shaken for 3 minutes. […]
Each mouse formed three assay wells and three control wells. The Stimulation Index (SI) of each mouse was obtained by first deriving the average OD of the three parallel wells, then dividing the value of the assay wells by the control wells.

[2] = test system: IL-2; assay: T lymphocyte IL-2 secretion test (HT-2 cell bioassay of ConA supernatant); assay type: in vivo, BALB/c mice; conditions: for activity of T lymphocyte in secreting IL-2, X ± SD (IU): healthy mice
Experimental: as §3
HT-2 cells at log phase were collected by centrifugation at 150 g for 10 minutes, and washed three times with cold Hank's solution by re-suspension and centrifugation. The collected HT-2 cells were re-suspended in RPMI-1640 and incubated at 37° C., 5% CO2 for 30 minutes. The cells were further washed twice with RPMI-1640 by re-suspension and centrifugation, and re-suspended to final concentration of 2×10^5/ml with RPMI-1640.
rIL-2 was diluted to the following concentration with RPMI-1640: 500 IU/ml, 250 IU/ml, 125 IU/ml, 62.5 IU/ml, 31.25 IU/ml, and […].
The plate was incubated at 37° C., 5% CO2 for 68 hours, then centrifuged at 150 g for 15 minutes and the supernatant removed. 100 μl 0.5 mg/ml MTT in RPMI-1640 without phenolsulfonphthalein was added into each well. After shaking for 3-4 minutes to re-suspend the cells, continue to incubate for another 4 hours. Samples were then centrifuged at 150 g for 15 minutes and the supernatant was removed. To each well, 120 μl 40 mM HCl-2-propanol was added, mixed for 3-4 minutes and OD analyzed at 570 nm, referenced at 630 nm with an ELISA plate reader.
The average OD of the three parallel wells of each dilution was taken and plotted against concentration on a semi-log paper, concentration on the X-axis. The concentration at 50% OD saturation was obtained for both the testing supernatant and rIL-2.

[3] = test system: anti-SRBC antibody; assay: Sheep Red Blood Cell (SRBC) hemolysis test, antibody formation; assay type: in vivo, BALB/c mice; conditions: for anti-SRBC antibody formation, X ± SD (Unit): healthy mice, SRBC day 12 (IFN-γ, IL-2 3×10^5 IU/kg/day), saline 32 ± 7; for effect on the synthesis of anti-SRBC antibody upon the antigenic challenge (summary): statistically significant difference from saline in any of the dosage groups 0.5-500 μg/kg/day
Experimental: Sheep red blood cells (SRBC) were prepared by collecting blood from cervical vein and put into a sterile flask with glass beads. The flask was shaken for 3 minutes and the blood then mixed with Alsever solution (glucose 2.05 g, NaCl 0.4 g, […] 0.8 g, adjust to 100 ml with distilled water) and stored at 4° C. Immediately before use, samples were centrifuged at 130 g, 5 minutes to collect the SRBC. The cells were washed two times by re-suspension and centrifugation in normal saline. Then the cell pellet was collected by centrifugation at 180 g for 10 minutes and re-suspended in saline to make the final working SRBC suspension, 2% (v/v).
Complement was prepared by adding 10 volumes of fresh Cavy serum into one volume centrifuge packed SRBC, and then gently shaking for 30 minutes at 4° C. The SRBC was removed by centrifugation at 200 g for 10 minutes. 10 volumes of normal saline were added to obtain the working complement solution.
The test substances were administered as described in section 1.1, plus intraperitoneal injection 0.2 ml SRBC per mouse on day 12. On the day after the last test substance administration (day 16), blood was collected from the eye canthus and left at room temperature for one hour for serum exudation. After centrifugation at 200 g for 10 minutes, the serum was diluted by 500 times with normal saline.
To 1 ml diluted mouse serum of each mouse, 0.5 ml SRBC suspension was added. Ice cold. Then 1 ml working complement solution was added and incubated at 37° C. water bath for 10 minutes. Reactions were terminated by ice cold. Samples were then centrifuged at 200 g for 10 minutes to obtain the supernatant.
To 1 ml of this supernatant, 3 ml Drabkin solution was added and left at room temperature for 10 minutes. OD540 nm was obtained.
Reference OD540 nm was obtained by mixing 0.25 ml SRBC suspension with Drabkin solution to 4 ml and placed at room temperature for 10 minutes before OD540 nm was taken.
Sample serum index=(OD540 nm of test sample÷reference OD540 nm)×500

[4] = test system: spleen; assay: Immunity organ weight test, spleen index; assay type: in vivo, BALB/c mice; conditions: for weight of spleen (spleen index), X ± SD (%): healthy mice, peptide 500 μg/kg/day i.p. 15 days, saline 0.53 ± 0.05; for effect on the weight of the spleen (summary): statistically significant difference from saline in any of the dosage groups 0.5-500 μg/kg/day
Experimental: (§4) One day after the last test substance administration (day 16), the liver, spleen, and thymus gland were separated and blotted dry with filter paper and weighed. The phagocytosis index α was calculated as below: α=(^3√{square root over ( )}K)(W÷WLS)
Spleen index (%)=(spleen weight/body weight)×100%

[5] = test system: NK cell; assay: NK cell cytotoxicity activity test (spleen cells of treated mice against YAC-1 target cells, MTT); assay type: in vivo, BALB/c mice; conditions: for NK cell cytotoxic activity, X ± SD (%): healthy mice; for effect on the cytotoxic activity of NK cells (summary): statistically significant difference from saline in any of the dosage groups 0.5-500 μg/kg/day
Experimental: as §1, §2
Mice spleen cells were prepared to 4×10^6/ml as described in section 1.1 above. Target cells YAC-1 were brought to log phase and adjusted to 1×10^5/ml. Using a 96 wells cell culture plate, […] were added to the control well containing only the spleen cells; […] and 100 μl culture medium were added to the control well containing only target cells; 100 μl mouse spleen cells and 100 μl target cells were added to the NK activity assay well. Three parallel sets of the above were prepared per mouse.
Samples were centrifuged at 150 g for 10 minutes to collect the cells. The supernatant was discarded and 50 μl/well MTT of 1 mg/ml was added. The reaction-mixture was then shaken for 2 minutes, and incubated at 37° C., 5% CO2 for 4 hours. The supernatant was discarded after centrifugation at 150 g for 10 minutes. […] 40 mM HCl-2-propanol was added and shaken for 3 minutes. An ELISA reader was used to obtain OD570 nm of each well referenced at 630 nm.

[6] = test system: interferon (IFN); set-up: species or system BALB/c mice; conditions: mouse, in vivo; for activity of T lymphocyte in secreting IFN, X ± SD (IU): ip
[7] = test system: mononuclear phagocyte; assay: Carbon particle clearance test, phagocytosis function; assay type: in vivo, BALB/c mice; set-up: key to X ± SD (phagocytotic index): α = cube root of K × (body weight ÷ liver+spleen weight)
Experimental: On the next day after the last test substance administration (day 16), the mice were injected with […] body weight India ink (5 times dilution with normal saline) from the tail vein.
One minute and five minutes after Indian ink injection, 20 μl blood was obtained from the eye canthus with a heparinized tubing. The blood was mixed with 2 ml 0.1% w/v Na2CO3 and then OD680 nm obtained. The outline clear index K was calculated by the following formula: K=(lgA1−lgA2)÷(t2−t1)
as §4

[8] = test system: thymus gland; assay: Immunity organ weight test, thymus gland index; assay type: in vivo, BALB/c mice; conditions: for weight of thymus gland (thymus gland index), X ± SD (%): healthy mice, saline 0.12 ± 0.02; for effect on the weight of the thymus gland (summary): statistically significant difference from saline in any of the dosage groups 0.5-500 μg/kg/day
Experimental: as §4
Thymus gland index (%)=(thymus weight/body weight)×100%

[9] = peptide 5 μg/kg/day i.p. 15 days (IFN-γ, IL-2 3×10^5 IU/kg/day)
[10] = peptide 500 μg/kg/day i.p. 15 days (IFN-γ, IL-2 3×10^5 IU/kg/day)
[11] = statistically significant difference from saline in any of the dosage groups 0.5-500 μg/kg/day
[12] = peptide 5 μg/kg/day i.p. 15 days
[13] = peptide 500 μg/kg/day i.p. 15 days
[14] = peptide 500 μg/kg/day i.p. 15 days (IFN-γ, IL-2 3×10^5 IU/kg/day), saline 63 ± 9
[15] = peptide 0.5 μg/kg/day i.p. 15 days
[16] = peptide 50 μg/kg/day i.p. 15 days

Row | Substance | X ± SD (stimulation index) [1, 10] | effect on T lymphocyte transformation (summary) [1] | anti-SRBC antibody formation, X ± SD (Unit) [3, 12] | anti-SRBC antibody formation, X ± SD (Unit) [3, 13] | effect on the synthesis of anti-SRBC antibody upon the antigenic challenge (summary) [3] | weight of spleen (spleen index), X ± SD (%) [4] [%] | effect on the weight of the spleen (summary) [4] | NK cell cytotoxic activity, X ± SD (%) [5, 14] [%] | effect on the cytotoxic activity of NK cells (summary) [5] | effect on the secretion of IFN by T lymphocytes (summary) [6] | activity of T lymphocyte in secreting IFN, X ± SD (IU) [6] | anti-SRBC antibody formation, X ± SD (Unit) [3, 15] | anti-SRBC antibody formation, X ± SD (Unit) [3, 16] | weight of thymus gland (thymus gland index), X ± SD (%) [8, 9] | effect on the weight of the thymus gland (summary) [8] | further results
1 | Ala Gly Asp Asp Ala Pro Arg Ala Val Phe (AGDDAPRAVF; listed as Sus scrofa) [CMS007] | 1.6 ± 0.1 | enhance | 122 ± 12*^@^ Unit | 69 ± 17*^@ Unit | enhance | 0.32 ± 0.05 | decrease | – | – | – | – | – | – | – | – | X ± SD (stimulation index) [1, 9]: 1.7 ± 0.1; activity of T lymphocyte in secreting IL-2, X ± SD (IU) ([2]; peptide 5 μg/kg/day i.p. 15 days (IFN-γ, IL-2 3×10^5 IU/kg/day), saline 37 ± 9): 64 ± 12 IU; activity of T lymphocyte in secreting IL-2, X ± SD (IU) ([2]; peptide 500 μg/kg/day i.p. 15 days (IFN-γ, IL-2 3×10^5 IU/kg/day), saline 39 ± 10): 86 ± 15*^ IU; effect on the secretion of interleukin-2 (IL-2) by T lymphocytes (summary) [2, 11]: enhance
2 | LRVAPQEHPVL [CMS013] | – | – | 93 ± 28*^@ Unit | 80 ± 16*^@ Unit | – | 0.44 ± 0.07 | decrease | 84 ± 9 | increase | enhance | 154 ± 15*^@^ IU | 7 ± 1 Unit | 70 ± 9*^@ Unit | 0.21 ± 0.05 % | increase | X ± SD (phagocytotic index) ([7]; healthy mice, peptide 5 μg/kg/day i.p. 15 days (IFN-γ, IL-2 3×10^5 IU/kg/day), saline 5.1 ± 0.6): 6.7 ± 0.2; effect on the phagocytotic activity of mononuclear phagocyte (summary) [7, 11]: enhance
3 | MATAASSSSL [CMS021] | 1.6 ± 0.1 | enhance | 82 ± 30*^@ Unit | – | enhance | 0.36 ± 0.04 | decrease | – | increase | enhance | 143 ± 17*^@^ IU | 57 ± 9*^@ Unit | 94 ± 20*^@^ Unit | 0.20 ± 0.06 % | increase | NK cell cytotoxic activity, X ± SD (%) ([5]; peptide 50 μg/kg/day i.p. 15 days (IFN-γ, IL-2 3×10^5 IU/kg/day), saline 56 ± 8): 88 ± 12*^@^ %
4 | Phe Gln Pro Ser Phe (FQPSF; printed: Phe Gln Pro Ser Phe) [CMS028] | – | – | 121 ± 48*^@^ Unit | – | – | – | – | 90 ± 5 | increase | enhance | 96 ± 13 IU | 18 ± 5 Unit | – | 0.28 ± 0.06*^@^ % | increase | NK cell cytotoxic activity, X ± SD (%) ([5]; peptide 0.5 μg/kg/day i.p. 15 days (IFN-γ, IL-2 3×10^5 IU/kg/day), saline 58 ± 7): 79 ± 3 %; weight of thymus gland (thymus gland index), X ± SD (%) ([8]; peptide 0.5 μg/kg/day i.p. 15 days (IFN-γ, IL-2 3×10^5 IU/kg/day)): 0.20 ± 0.06 %; weight of thymus gland (thymus gland index), X ± SD (%) ([8]; peptide 50 μg/kg/day i.p. 15 days (IFN-γ, IL-2 3×10^5 IU/kg/day)): 0.18 ± 0.04 %; weight of thymus gland (thymus gland index), X ± SD (%) [8, 10]: 0.19 ± 0.02 %
